Data reported in patent US9381518B2, “Nano-suspension process” (MERCK SHARP & DOHME CORP., priority 2011, dated 2016).
Like-named read-outs stand apart in the source and are kept apart here.

Legend:
[1] = Particle size analysis (D50, D90) of nano-suspensions by dynamic light scattering; format: physicochemical; conditions: 90 minutes, PVP-K29-32/SDS in water
[2] = 90 minutes
Experimental: Example nano-suspensions were evaluated for particle size and particle size distribution using dynamic light scattering (DLS, Wyatt, DyanoPro Plate Reader). Results reported for particle size analysis (D50 and D90) have their ordinary meaning as understood in the art of particle-size analysis. Unless otherwise indicated, values for D50 and D90 are reported in nanometers (nm). The APC in example nano-suspensions was evaluated using high performance liquid chromatography (HPLC, Hewlett Packard, Agilent 1100). Residual metals analysis was performed using inductively coupled plasma mass spectroscopy (ICP-MS, Perkin Elmer).
The temperature of each nano-suspension was determined using a thermometer immediately after the milling time was completed. Particle size and metals content were analyzed as described herein. The nano-suspension product produced in each operation was recovered through centrifuge filtration over a 10 micron polypropylene mesh (Nanomill) or through a syringe equipped with a 20-gauge needle (acoustic mixer). In the case of the nano-suspension prepared with acoustic mixing, the YTZ milling media is sufficiently dense that it settles from the nano-suspension and permits separation by decantation without the need for separation through a mesh.

SMILES: COc1ccc2cc([C@H](C)C(=O)O)ccc2c1 [Naproxen sodium]
- Drug nanoparticle diameter (D50) ([1]; Elan Nanomill high-shear milling, polystyrene milling beads): 354 nm
- Drug nanoparticle diameter (D50) ([1]; Resodyn LabRAM acoustic mixer, YTZ milling beads): 286 nm
- Residual Metals ([2]; Elan Nanomill high-shear milling): >1000 ppm
- Residual Metals ([2]; Resodyn LabRAM acoustic mixer): <1 ppm
